Experimental data from US20200392181A1, “PEPTIDE COMPOSITIONS AND RELATED METHODS” (Allegro Pharmaceuticals, LLC, priority 2017, published 2020).

Test system: ischemia-induced retinal neovascularization
Assay: Mouse model of retinopathy of prematurity (ROP), ischemia-induced retinal neovascularization
Assay type: in vivo, C57BI/6 mice
Conditions: addition of three parts taurine to one part of the peptide
Method: Each test compound was prepared in sterile water for injection, containing 0.08 mg/100 μL of sodium chloride and 0.005 mg/100 μL of trisodium citrate, the concentration of the peptide was at a concentration of 2.0 mg/100 μL and pH=2.7 and dispensed by sterile filtration into sterile vials. The Taurine test compound was obtained from Sigma Aldrich company, which was >99% pure, and prepared the same way as mentioned previously, having a concentration of 3.0 mg/100 μL. […]
To screen the test compounds for activity against ischemia-induced retinal neovascularization, the well-established model of retinopathy of prematurity (ROP) in mice was used. Litters of C57BI/6 mice were placed in 75% oxygen at postnatal day (P) 7, returned to room air at day (P) 12. The Pups were randomly assigned to treatment groups of 4 to 10 animals per group. The pups were treated as follows: Treatment eyes were treated by intravitreal injection of 1.0 microliters of solution containing 20 micrograms of Test Compound.
On post-natal day 17, 5 days after intravitreal injection, the animals were sacrificed, the retinas were flat mounted and the area of neovascularization in each retina was determined by Fluorescein-dextran image analysis. […]

Glycinyl-Arginyl-Glycinyl-Cysteic(Acid)-Threonyl-Proline [ALG-1001]
neovascularization suppressing activity on addition of taurine: improves the neovascularization suppressing activity
